# Laboratory results published in ChEMBL document CHEMBL3885881, “DrugMatrix”.
# Species on record: Rattus norvegicus
# Test: DrugMatrix - Regimen: Daily Repeat
# Assay type: toxicity, organism-based, Sprague-Dawley
# Parameters: regimen Daily Repeat, gender Male, age 6-8 weeks
# Settings: in vivo, sc, 0 mg/kg, route mini-PUMP - SUBCUTANEOUS, dose level Control, vehicle 100 % SALINE; for ABSOLUTE BASOPHIL / ABSOLUTE EOSINOPHIL / ABSOLUTE LYMPHOCYTE / ABSOLUTE MONOCYTE / ABSOLUTE SEGMENTED NEUTROPHIL / BASOPHIL / EOSINOPHIL / ERYTHROCYTE COUNT / HEMATOCRIT / HEMOGLOBIN / LEUKOCYTE COUNT / LYMPHOCYTE / MEAN CORPUSCULAR HEMOGLOBIN / MEAN CORPUSCULAR HEMOGLOBIN CONCENTRATION / MEAN CORPUSCULAR VOLUME / MONOCYTE / NEUTROPHIL / NUCLEATED RED BLOOD CELLS / PLATELET COUNT: tissue Blood; for ALANINE AMINOTRANSFERASE / ALBUMIN / ALKALINE PHOSPHATASE / ASPARTATE AMINOTRANSFERASE / BLOOD UREA NITROGEN / CARBON DIOXIDE / CHLORIDE / CHOLESTEROL / CREATININE / GLUCOSE / LACTATE DEHYDROGENASE / LIPASE / PHOSPHORUS / POTASSIUM / SODIUM / TOTAL BILIRUBIN / TOTAL PROTEIN / URIC ACID: tissue Plasma
compound,measurement,setting,value
CNC[C@H](O)c1cccc(O)c1 [PHENYLEPHRINE],ABSOLUTE BASOPHIL,"72 h, time 3 day",0 CELLS/uL
same,ABSOLUTE EOSINOPHIL,"72 h, time 3 day",77.17 CELLS/uL
same,ABSOLUTE LYMPHOCYTE,"72 h, time 3 day",14293.83 CELLS/uL
same,ABSOLUTE MONOCYTE,"72 h, time 3 day",354 CELLS/uL
same,ABSOLUTE SEGMENTED NEUTROPHIL,"72 h, time 3 day",1658.33 CELLS/uL
same,BASOPHIL,"72 h, time 3 day",0%
same,EOSINOPHIL,"72 h, time 3 day",0.5%
same,ERYTHROCYTE COUNT,"72 h, time 3 day",6.27 x10E6/uL
same,HEMATOCRIT,"72 h, time 3 day",36.95%
same,HEMOGLOBIN,"72 h, time 3 day",13.4 G/DL
same,LEUKOCYTE COUNT,"72 h, time 3 day",16.38 x10E3/uL
same,LYMPHOCYTE,"72 h, time 3 day",87.17%
same,MEAN CORPUSCULAR HEMOGLOBIN,"72 h, time 3 day",21.42 pg
same,MEAN CORPUSCULAR HEMOGLOBIN CONCENTRATION,"72 h, time 3 day",36.27 G/DL
same,MEAN CORPUSCULAR VOLUME,"72 h, time 3 day",59.03 fL
same,MONOCYTE,"72 h, time 3 day",2%
same,NEUTROPHIL,"72 h, time 3 day",10.33%
same,NUCLEATED RED BLOOD CELLS,"72 h, time 3 day",0 /100WBC
same,PLATELET COUNT,"72 h, time 3 day",904.67 x10E3/uL
same,ALANINE AMINOTRANSFERASE,"72 h, time 3 day",48.33 u/L
same,ALBUMIN,"72 h, time 3 day",3.82 G/DL
same,ALKALINE PHOSPHATASE,"72 h, time 3 day",282.33 u/L
same,ASPARTATE AMINOTRANSFERASE,"72 h, time 3 day",86.83 u/L
same,BLOOD UREA NITROGEN,"72 h, time 3 day",20.17 mg/dL
same,CARBON DIOXIDE,"72 h, time 3 day",34.67 mmol/L
same,CHLORIDE,"72 h, time 3 day",102 MEQ/L
same,CHOLESTEROL,"72 h, time 3 day",71.5 mg/dL
same,CREATININE,"72 h, time 3 day",0.2 mg/dL
same,GLUCOSE,"72 h, time 3 day",136.83 mg/dL
same,LACTATE DEHYDROGENASE,"72 h, time 3 day",159 u/L
same,LIPASE,"72 h, time 3 day",9 u/L
same,PHOSPHORUS,"72 h, time 3 day",10.12 mg/dL
same,POTASSIUM,"72 h, time 3 day",5.92 MEQ/L
same,SODIUM,"72 h, time 3 day",147.8 MEQ/L
same,TOTAL BILIRUBIN,"72 h, time 3 day",0.2 mg/dL
same,TOTAL PROTEIN,"72 h, time 3 day",6.05 G/DL
same,URIC ACID,"72 h, time 3 day",1.4 mg/dL
same,ABSOLUTE BASOPHIL,"120 h, time 5 day",0 CELLS/uL
same,ABSOLUTE EOSINOPHIL,"120 h, time 5 day",0 CELLS/uL
same,ABSOLUTE LYMPHOCYTE,"120 h, time 5 day",14257.33 CELLS/uL
same,ABSOLUTE MONOCYTE,"120 h, time 5 day",326 CELLS/uL
same,ABSOLUTE SEGMENTED NEUTROPHIL,"120 h, time 5 day",3216.67 CELLS/uL
same,BASOPHIL,"120 h, time 5 day",0%
same,EOSINOPHIL,"120 h, time 5 day",0%
same,ERYTHROCYTE COUNT,"120 h, time 5 day",6.11 x10E6/uL
same,HEMATOCRIT,"120 h, time 5 day",36.22%
same,HEMOGLOBIN,"120 h, time 5 day",13.18 G/DL
same,LEUKOCYTE COUNT,"120 h, time 5 day",17.8 x10E3/uL
same,LYMPHOCYTE,"120 h, time 5 day",80.5%
same,MEAN CORPUSCULAR HEMOGLOBIN,"120 h, time 5 day",21.62 pg
same,MEAN CORPUSCULAR HEMOGLOBIN CONCENTRATION,"120 h, time 5 day",36.42 G/DL
same,MEAN CORPUSCULAR VOLUME,"120 h, time 5 day",59.37 fL
same,MONOCYTE,"120 h, time 5 day",1.83%
same,NEUTROPHIL,"120 h, time 5 day",17.67%
same,NUCLEATED RED BLOOD CELLS,"120 h, time 5 day",0 /100WBC
same,PLATELET COUNT,"120 h, time 5 day",1311 x10E3/uL
same,ALANINE AMINOTRANSFERASE,"120 h, time 5 day",47 u/L
same,ALBUMIN,"120 h, time 5 day",3.83 G/DL
same,ALKALINE PHOSPHATASE,"120 h, time 5 day",260.33 u/L
same,ASPARTATE AMINOTRANSFERASE,"120 h, time 5 day",76.17 u/L
same,BLOOD UREA NITROGEN,"120 h, time 5 day",14.67 mg/dL
same,CARBON DIOXIDE,"120 h, time 5 day",31.33 mmol/L
same,CHLORIDE,"120 h, time 5 day",101.17 MEQ/L
same,CHOLESTEROL,"120 h, time 5 day",75 mg/dL
same,CREATININE,"120 h, time 5 day",0.16 mg/dL
same,GLUCOSE,"120 h, time 5 day",152.67 mg/dL
same,LACTATE DEHYDROGENASE,"120 h, time 5 day",147.33 u/L
same,LIPASE,"120 h, time 5 day",9.33 u/L
same,PHOSPHORUS,"120 h, time 5 day",10.97 mg/dL
same,POTASSIUM,"120 h, time 5 day",6 MEQ/L
same,SODIUM,"120 h, time 5 day",145.52 MEQ/L
same,TOTAL BILIRUBIN,"120 h, time 5 day",0.17 mg/dL
same,TOTAL PROTEIN,"120 h, time 5 day",5.83 G/DL
same,URIC ACID,"120 h, time 5 day",1.27 mg/dL
same,ABSOLUTE BASOPHIL,"[…], time 14 day",0 CELLS/uL
same,ABSOLUTE EOSINOPHIL,"[…], time 14 day",64.5 CELLS/uL
same,ABSOLUTE LYMPHOCYTE,"[…], time 14 day",12507.83 CELLS/uL
same,ABSOLUTE MONOCYTE,"[…], time 14 day",380.33 CELLS/uL
same,ABSOLUTE SEGMENTED NEUTROPHIL,"[…], time 14 day",2414 CELLS/uL
same,BASOPHIL,"[…], time 14 day",0%
same,EOSINOPHIL,"[…], time 14 day",0.5%
same,ERYTHROCYTE COUNT,"[…], time 14 day",6.1 x10E6/uL
same,HEMATOCRIT,"[…], time 14 day",35.4%
same,HEMOGLOBIN,"[…], time 14 day",12.88 G/DL
same,LEUKOCYTE COUNT,"[…], time 14 day",15.37 x10E3/uL
same,LYMPHOCYTE,"[…], time 14 day",80.83%
same,MEAN CORPUSCULAR HEMOGLOBIN,"[…], time 14 day",21.18 pg
same,MEAN CORPUSCULAR HEMOGLOBIN CONCENTRATION,"[…], time 14 day",36.43 G/DL
same,MEAN CORPUSCULAR VOLUME,"[…], time 14 day",58.17 fL
same,MONOCYTE,"[…], time 14 day",2.17%
same,NEUTROPHIL,"[…], time 14 day",16.5%
same,NUCLEATED RED BLOOD CELLS,"[…], time 14 day",0.17 /100WBC
same,PLATELET COUNT,"[…], time 14 day",1016 x10E3/uL
same,ALANINE AMINOTRANSFERASE,"[…], time 14 day",53.33 u/L
same,ALBUMIN,"[…], time 14 day",3.93 G/DL
same,ALKALINE PHOSPHATASE,"[…], time 14 day",319.83 u/L
same,ASPARTATE AMINOTRANSFERASE,"[…], time 14 day",84 u/L
same,BLOOD UREA NITROGEN,"[…], time 14 day",15.5 mg/dL
same,CARBON DIOXIDE,"[…], time 14 day",34 mmol/L
same,CHLORIDE,"[…], time 14 day",101.83 MEQ/L
same,CHOLESTEROL,"[…], time 14 day",57 mg/dL
same,CREATININE,"[…], time 14 day",0.21 mg/dL
same,GLUCOSE,"[…], time 14 day",182.33 mg/dL
same,LACTATE DEHYDROGENASE,"[…], time 14 day",104.67 u/L
same,LIPASE,"[…], time 14 day",9.17 u/L
same,PHOSPHORUS,"[…], time 14 day",11.12 mg/dL
same,POTASSIUM,"[…], time 14 day",5.81 MEQ/L
same,SODIUM,"[…], time 14 day",144.85 MEQ/L
same,TOTAL BILIRUBIN,"[…], time 14 day",0.18 mg/dL
same,TOTAL PROTEIN,"[…], time 14 day",5.92 G/DL
same,URIC ACID,"[…], time 14 day",1.38 mg/dL
